Measurements reported in patent publication US6447767B1, “Non-myeloablative tolerogenic treatment” (Hadasit Medical Research Services and Development Ltd., priority 1997, dated 2002).
“And” between values parts separate entries of the source, which are not always exact repeats. Equal values may be shown once. Read-outs that look alike come from different tables or passages of the source.

Columns and labels:
[1] = tested on: metastatic solid tumors / lymphoma; assay: AlloCT with rIL-2 activated mismatched lymphocytes plus tumor-specific antibodies (case reports); type: in vivo, human; conditions: single patients; antibody given with rIL-2 activated haploidentically mismatched lymphocytes
Description: Donor-derived anti-cancer effector lymphocytes consisted of rIL-2 activated cells (four days activation with rIL-26,000 IU/ml) or using donor lymphocytes activated in vitro against irradiated tumor cells or host alloantigens in one way mixed lymphocyte tumor reaction or using donor lymphocytes pre-cultured with irradiated parental or other family member expressing either one of the patient's haplotypes in one way mixed lymphocyte cultures (in order to induce effector cells against inherited paternal or maternal haplotypes, to maximize anti-host alloreactivity to be used as adoptive allogeneic cell therapy (alloCT). In order to maximize anti-cancer effects, patients can be immunosuppressed with Fludarabine 25 mg/m^2×5 days. […] Following cell infusion, patients receive subcutaneously rIL-2 6×10^6 IU/m^2 in an attempt to continue to activate in vivo donor anti-tumor reactive lymphocytes. Two weeks post cell therapy, patient may receive injections of alpha interferon 3×10^6 IU every other day subcutaneously as anti-proliferative and mostly as anti-angiogenic effects to minimize or jeopardize tumor cell growth from residual tumor cells escaping alloCT.
The alloCT course was done according to the scheme described.
Both cycles of alloCT were followed with SC injections of r-IL2 6×10^6 IU for five days.

[2] = tested on: BALB/c mouse spleen cells; assay: Mitogen-induced T cell proliferation ([3H]-thymidine incorporation); type: cell-based
Procedure: Mitogen-induced T cell proliferative responses were measured by culturing spleen cells in the presence of the T cell mitogens concanavalin A (ConA, 10 μg/ml) or phytohemagglutinin (PHA, 1 μg/ml) for three days. [^3H]-thymidine was added to the cultures for the last 6 hours of culture and T cell proliferation was measured in terms of counts per minute (cpm) of [^3H]-thymidine incorporated into the DNA of the cells using cell harvesting and radioactivity techniques known to those in the art.
BALB/c spleen cells were cultured for 30 minutes at 37° C. in tissue culture medium containing 100 μg/ml of ASTA-Z and then tested for in vitro T cell responses.

Daudi target cells = assay: 51Cr-release lysis by killer cells generated from human PBMC with rIL-2; type: cell-based
Procedure: (§1) Percent lysis was calculated by the following formula: [formula]

K562 target cells = assay: as above; type: cell-based
Procedure: as §1

[3] = tested on: murine P815 tumor target cells; conditions: BALB/c SP or BM cells, ASTA-Z then rIL-2 6,000 IU/ml 4 days (FIG. 19)
Procedure: (§2) Human peripheral blood mononuclear cell (PBMC) and murine spleen or bone marrow populations were tested for their ability to lyse NK-sensitive target cells (human K562 and murine YAC-1 cells) and NK-resistant, activated NK-sensitive target cells (human Daudi and murine P815 cells) using standard ^51Cr-release assays. Briefly, ^51 Cr-labeled target cells were incubated at 37° C. with PBMC effector cells at various target cell to effector cell ratios for 4 hours. At the end of the incubation, the cells were pelleted by centrifugation and equal aliquots of supernatant were removed from each assay culture well and counted for radioactivity. Percent lysis was calculated by the following formula: [formula]
(§3) They were then harvested and tested for cytolytic activity in standard ^51Cr-release assays. While YAC-1 cells are sensitive to lysis by both NK and activated NK cells, P815 cells are not sensitive to lysis by NK cells but are sensitive to activated NK cells. […] While K562 cells are sensitive to lysis by both NK and activated NK cells, Daudi cells are not sensitive to NK cells but are sensitive to activated NK cells.

[4] = tested on: murine YAC-1 tumor target cells; conditions: BALB/c SP or BM cells, ASTA-Z then rIL-2 6,000 IU/ml 4 days (FIG. 18)
Procedure: as §2, §3

[5] = GVHD induction by B6 bone marrow in lethally irradiated SJL/J mice; type: in vivo; conditions: B6 BM 30 min with 100 μg/ml, 25×10^6 per mouse, SJL/J 1,100 cGy TBI (FIG. 20)
Procedure: (§4) Recipients were monitored for survival and clinical signs of GVHD such as ruffled fur, diarrhea, and measurable weight loss. […], samples of liver and lung sections were obtained form each mouse to test for histological evidence of GVHD. Histological preparations were analyzed by an independent pathologist on a double blind basis.
(§5) In parallel murine experiments, culture of B6 bone marrow for 30 minutes with ASTA-Z (100 μg/ml) prior to injection (25×10^6 per mouse) into lethally irradiated (1,100 cGy of TBI) SJL/J mice reduced the capacity of the bone marrow cells to induce GVHD (FIG. 20). Similarly, culture of B6 spleen cells for 30 minutes with ASTA-Z (100 μg/ml) prior to injection (25×10^6 per mouse) into sublethally irradiated BALB/c mice (600 cGy) reduced the capacity of the spleen cells to induce GVHD (FIG. 21).

[6] = GVHD induction by B6 spleen cells in sublethally irradiated BALB/c mice; type: in vivo; conditions: B6 spleen cells 30 min with 100 μg/ml, 25×10^6 per mouse, BALB/c 600 cGy (FIG. 21)
Procedure: as §4, §5

[7] = tested on: Lewis rat skin xenografts
Procedure: The basic protocol for conditioning prior to transplantation included sTLI (1-6 daily exposures of 200 cGy) to a total dose of up to 1,200 cGy, followed by intravenous inoculation with 3×10^7 BMC on the day after the last TLI dose. […] One day after BMC infusion, experimental mice were injected with 200 mg/kg Cy (Taro, Israel) intraperitoneally. Cy was freshly dissolved in sterile phosphate-buffered saline prior to injection. […] A second infusion of donor, after Cy, was also administered in some of the mice.
Skin grafting was carried out 20 days after completion of the tolerogenic treatment. A full-thickness skin graft measuring 1 cm×1 cm was adjusted to the graft bed by 4 Thomas surgery clips (Thomas Scientific, USA). The panniculus camosus was kept intact in the graft bed. The graft was considered to be accepted when hair of donor color grew on the soft flexible underlying skin, and rejected when donor epithelium was lost.
Two groups of mice were administered sTLI of 6 fractions of 200 cGy/day. After sTLI conditioning, both groups were administered 30×10^6 non-T cell depleted Lewis rat BMC intravenously. The first group was given a single dose of 200 mg/kg Cy the next day. Another 3×10^7 non T cell depleted rat BMC were administered the following day. In the second group, a dose of 60 mg/kg Cy was given daily for 3 days in contrast to the single 200 mg/kg dose given the first group. The first dose of Cy was given 10 hours after the first rat BMC inoculation, the second dose at 24 hours and the third dose at 48 hours (see below). After administration of three doses of 60 mg/kg Cy, a second inoculation of 3×10^7 non T cell depleted rat BMC were administered.

[8] = ASTA-Z treated PBMC cultured with IL-2 6,000 IU/ml, target:effector 1:100
[9] = human PBMC, ASTA-Z then rIL-2 6,000 IU/ml 4 days
[10] = sTLI, rat BMC, single 200 mg/kg Cy, second rat BMC

In the case of “MabThera: monoclonal anti-CD20 antibodies”, the clinical outcome [1] is reported as “no evidence of disease”.

With mafosphamide [ASTA-Z] the “in vitro proliferative responses to the T cell mitogens ConA and PHA” value ([2]; 100 μg/ml, 30 minutes, 37°C) was “elimination”, the “Cell Proliferation, Con-A” value ([2]; BALB/c spleen cells, ASTA-Z 100 μg/ml 30 min 37°C and/or IL-2 1,000 IU/ml, ConA 10 μg/ml) was 2,980 cpm and the “Cell Proliferation, PHA” value ([2]; BALB/c spleen cells, ASTA-Z 100 μg/ml 30 min 37°C and/or IL-2 1,000 IU/ml, PHA 1 μg/ml) was 5,118 cpm. For the same molecule, the “Cell Proliferation, No Mitogens” value ([2]; BALB/c spleen cells, ASTA-Z 100 μg/ml 30 min 37°C and/or IL-2 1,000 IU/ml, no mitogen) was 219 cpm, the “effect of added IL-2 on inhibition of responsiveness to the mitogens” value ([2]; IL-2 1,000 IU/ml added to cultures of spleen cells and ASTA-Z) was “did not overcome inhibition” and the “Lysis of Daudi target cells (percentage of 51Cr released)” value (Daudi target cells; [8]) was 42% and 71%. The “generation of killer cells capable of killing Daudi target cells” value (Daudi target cells; [9]) was “did not decrease”, the “Lysis of K562 target cells (percentage of 51Cr released)” value (K562 target cells; [8]) was 52% and 48% and the “generation of killer cells capable of killing K562 target cells” value (K562 target cells; [9]) was “did not decrease”. The “generation of killer cells capable of killing P815 target cells” value [3] was “did not decrease”, the “generation of killer cells capable of killing YAC-1 target cells” value [4] was “did not decrease” and the “capacity of the bone marrow cells to induce GVHD” value [5] was “reduced”. For the same molecule, the “capacity of the spleen cells to induce GVHD” value [6] was “reduced”.

For `O=P1(N(CCCl)CCCl)NCCCO1` (centres unmarked) [Cy, cyclophosphamide], the “recipients that developed lethal GVHD” value ([7]; Cy 3 × 60 mg/kg, of the 15 recipients that accepted xenografts) was 5, the “Skin Graft Acceptance” value ([7]; sTLI, rat BMC, Cy 60 mg/kg at 10 h, 24 h, 48 h, second rat BMC) was 15 of 20 and 15/20 and the “Lethal GVHD” value [7, 10] was “in most of the recipients”. For the same molecule, the “Skin Graft Acceptance” value [7, 10] was 0/6 and the “Skin Xenograft Survival Time” value [7, 10] was <20 days.

B1: Panorex: anti-epithelial cell antibodies, anti-17A (antibody, chains of the INN, looked up, V domains shown)
VH: QVQLQQSGAELVRPGTSVKVSCKASGYAFTNYLIEWVKQRPGQGLEWIGVINPGSGGTNYNEKFKGKATLTADKSSSTAYMQLSSLTSDDSAVYFCARDGPWFAYWGQGTLVTVSA
VL: NIVMTQSPKSMSMSVGERVTLTCKASENVVTYVSWYQQKPEQSPKLLIYGASNRYTGVPDRFTGSGSATDFTLTISSVQAEDLADYHCGQGYSYPYTFGGGTKLEIK
With B1 the clinical outcome [1] was “no evidence of disease”.
